We go through eleven compounds from patent publication US20070105837A1, “Novel derivatives of 4a,5,9,10,11,12-hexahydrobenzofuro[3a,3,2][2]-benzazepine, method for the production thereof and use thereof in the production of medicaments” (priority 2003, published 2007).

Counter-ions that a name gives are not always drawn. Like-named read-outs stand apart in the source and are kept apart here.

Test [1] concerns the target acetylcholinesterase (Homo sapiens, UniProt P22303). Description: biochemical.
The target in test [2] is butyrylcholinesterase (Homo sapiens, UniProt P06276). The experiment in a line: biochemical.
Setting [3] is: read-out: Acetylcholinesterase IC-50.
Where [4] appears, read: read-out: Butyrylcholinesterase IC-50.

butyrylcholinesterase, sequence (P06276 29-602): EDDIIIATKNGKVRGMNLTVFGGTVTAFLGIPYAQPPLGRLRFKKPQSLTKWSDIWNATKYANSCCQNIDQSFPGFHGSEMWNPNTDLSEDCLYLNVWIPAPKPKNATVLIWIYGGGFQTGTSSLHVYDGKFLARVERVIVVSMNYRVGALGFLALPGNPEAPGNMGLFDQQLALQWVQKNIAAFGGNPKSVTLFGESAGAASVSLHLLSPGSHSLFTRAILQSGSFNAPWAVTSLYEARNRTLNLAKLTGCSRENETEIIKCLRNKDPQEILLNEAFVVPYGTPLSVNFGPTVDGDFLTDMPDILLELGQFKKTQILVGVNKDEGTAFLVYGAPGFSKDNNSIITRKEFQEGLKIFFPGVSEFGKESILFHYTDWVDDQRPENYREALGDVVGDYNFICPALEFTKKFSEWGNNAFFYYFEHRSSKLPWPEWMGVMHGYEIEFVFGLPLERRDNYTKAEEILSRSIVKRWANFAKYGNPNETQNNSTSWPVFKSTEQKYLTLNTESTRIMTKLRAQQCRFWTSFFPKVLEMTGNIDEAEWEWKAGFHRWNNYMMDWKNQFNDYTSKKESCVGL
acetylcholinesterase, sequence (P22303 32-614, species assumed): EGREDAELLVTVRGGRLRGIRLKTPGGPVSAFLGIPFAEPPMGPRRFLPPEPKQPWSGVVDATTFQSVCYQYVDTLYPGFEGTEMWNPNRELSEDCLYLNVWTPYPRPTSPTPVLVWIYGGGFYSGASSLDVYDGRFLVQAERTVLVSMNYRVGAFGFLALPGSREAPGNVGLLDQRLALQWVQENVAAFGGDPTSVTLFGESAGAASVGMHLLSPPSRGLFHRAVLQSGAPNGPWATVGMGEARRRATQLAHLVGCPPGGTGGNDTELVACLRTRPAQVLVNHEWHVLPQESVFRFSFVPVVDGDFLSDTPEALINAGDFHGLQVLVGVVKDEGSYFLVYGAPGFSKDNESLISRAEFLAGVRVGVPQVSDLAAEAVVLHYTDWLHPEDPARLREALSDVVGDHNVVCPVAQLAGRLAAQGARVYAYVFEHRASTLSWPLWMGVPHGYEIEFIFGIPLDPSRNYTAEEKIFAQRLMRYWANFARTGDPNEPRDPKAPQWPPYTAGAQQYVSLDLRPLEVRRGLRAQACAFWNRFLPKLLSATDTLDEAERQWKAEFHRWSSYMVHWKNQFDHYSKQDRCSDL

Take `CCN1CC[C@]23C=C[C@H](O)C[C@H]2Oc2c(OC)ccc(c23)C1` [Example 26, (4aR,6R,8aR)-4a,5,9,10,11,12-hexahydro-3-methoxy-11-ethyl-6H-[1]benzofuro[3a,3,2,ef][2]benzazepin-6-ol]: the IC50 in test [1] and in test [2] was above 100 µM each time. With `COc1ccc2c3c1O[C@@H]1C=C(c4ccccc4)C=C[C@@]31CCN(C)C2` [Example 59, (4aS,8aS)-D5,6-4a,5,9,10,11,12-hexahydro-11-methyl-3-methoxy-6-phenyl-6H-[1]benzofuro[3a,3,2-ef][2]benzazepine], the results for the IC50 in test [1] (setting [3]) and in test [2] (setting [4]) were 52 µM and 25 µM, respectively. The like results for `COc1ccc2c3c1O[C@@H]1C[C@@H](N)C=C[C@]31CCN(C)C2` [Example 28, (4aR,6R,8aR)-4a,5,9,10,11,12-hexahydro-3-methoxy-11-methyl-6H-benzofuro[3a,3,2-ef][2]benzazepin-6-amine, dihydrochloride] were, in that order, above 100 µM and above 100 µM. The like results for `COc1ccc2c3c1O[C@H]1C[C@@H](O)C=C[C@@]31CCN(C(=O)CCC(=O)O)C2` [Example 39, ((4aS,6R,8aS)-4a,5,9,10,11,12-hexahydro-6-hydroxy-3-methoxy-6H-benzofuro[3a,3,2-ef][2]benzazepine-11--yl)gamma-oxobutyric acid] were, in that order, above 100 µM and above 100 µM. Consider `COc1cc(Br)c2c3c1OC1C[C@H](O)C=C[C@]31CCN(CCN1CCOCC1)C2` (single isomer, unassigned) [Example 58], for which the IC50 in test [1] (setting [3]) is above 100 µM; in test [2] (setting [4]), 53 µM. As to `COc1ccc2c3c1O[C@H]1C[C@H](O)C=C[C@@]31CCN(c1ncccn1)C2` [Example 16, (4aS,6S,8aS)-4a,5,9,10,11,12-hexahydro-3-methoxy-11-(2-pyrimidinyl)-6H-[1]benzofuro[3a,3,2-ef][2]benzazepin-6-ol], the IC50 in test [1] (setting [3]) and in test [2] (setting [4]) was above 100 µM each time.

Turning to `COc1ccc2c3c1O[C@@H]1C[C@@H](O)C=C[C@]31CCN(/C(=N/C#N)SC)C2` [Example 27, Methyl (4aR,6R,8aR)-N11-cyano-6-hydroxy-3-methoxy-4a,5,9,10-tetrahydro-6H-[1]benzofuro [3a,3,2-ef][2]benzazepine-11(12H)-carboximidothioate], the IC50 in test [1] (setting [3]) and in test [2] (setting [4]) was above 100 µM in each case. Take `COc1ccc2c3c1O[C@@H]1C[C@H](O)C=C[C@]31CCN(CCCO)C2` [Example 29, (4aR,6S,8aR)-11-(3-hydroxypropyl)-3-methoxy-5,6,9,10,11,12-hexahydro-4aH-[1]benzofuro[3a,3,2-ef][2]benzazepin-6-ol]: the IC50 in test [1] (setting [3]) and in test [2] (setting [4]) was above 100 µM throughout. As to `COc1cc(Br)c2c3c1O[C@@H]1C[C@H](O)C=C[C@]31CCN(CCCN1CCN(C)CC1)C2` [Example 8, (4aR,6R,8aR)-11-(3-(4-methylpiperazine)-1-yl-propyl)-3-methoxy-5,6,9,10,11,12-hexahydro-4aH-[1]benzofuro[3a,3,2-ef][2]benzazepin-6-oI, Trihydrochloride], in test [1] (setting [3]), the IC50 was above 100 µM. With `COc1ccc2c3c1O[C@H]1C[C@@H](O)C=C[C@@]31CCN(C(=O)NC1CCCCC1)C2` [Example 53, (4aS,6R,8aS)-N11-cydohexyl-6-hydroxy-3-methoxy-5,6,9,10-tetrahydro-4aH-[1]benzofuro[3a, 3,2-ef][2]benzazepine-11(12H)-carbonic acid isopropylamide], the IC50 in test [2] (setting [4]) is above 100 µM. As to `COc1ccc2c3c1O[C@H]1C[C@@H](O)C=C[C@@]31CCN(C(=O)CCN1CCCC1)C2` [Example 38, 1-[(4aS,6R,8aS)-6-hydroxy-3-methoxy-5,6,9,10-tetrahydro-4aH-[1]benzofuro[3a,3,2-ef][2]benzazepine-11(12H)-yl]-3-(1-pyrrolidyl) propan-1-one], the IC50 in test [2] (setting [4]) worked out at 2.4 µM.
